The nature of data set [1]: Octanol-water partition coefficient, log P of the compound. Format: physicochemical.
The test system of data set [2] is P388. The data set can be described thus: Antitumor activity against mouse P388 cells allografted in mouse assessed as host survival time at 100 mg/kg administered qd for 9 days beginning 24 hrs after tumor implantation relative to control. In kind it is functional.
Data set [3] deals with P388. The data set can be described thus: Antitumor activity against mouse P388 cells allografted in mouse assessed as host survival time at 40 mg/kg administered qd for 9 days beginning 24 hrs after tumor implantation relative to control in presence of 8 mg/kg CuCl2. Format: functional.
The subject of data set [4] is P388. The data set can be described thus: Antitumor activity against mouse P388 cells allografted in mouse assessed as host survival time at 50 mg/kg administered qd for 9 days beginning 24 hrs after tumor implantation relative to control in presence of 8 mg/kg CuCl2. Format: functional.
Data set [5] relates to Sarcoma-180. The data set can be described thus: Antitumor activity against mouse Sarcoma 180 cells allografted in mouse assessed as host survival time at 100 mg/kg administered qd for 6 days beginning 24 hrs after tumor implantation relative to control. Format: functional.
Data set [6] relates to Ehrlich. The data set can be described thus: Antitumor activity against mouse Ehrlich ascites carcinoma cells allografted in mouse assessed as host survival time at 40 mg/kg administered qd for 6 days beginning 24 hrs after tumor implantation relative to control in presence of 8 mg/kg CuCl2. In kind it is functional.
Data set [7] in a line: Metal chelating activity of the compound assessed as Fe2+-complex formation by absorbance analysis. Format: physicochemical.
A short description of data set [8]: Metal chelating activity of the compound assessed as Co2+-complex formation by absorbance analysis. In kind it is physicochemical.
Data set [9] concerns Ehrlich. The data set can be described thus: Antitumor activity against mouse Ehrlich ascites carcinoma cells allografted in mouse assessed as host survival time at 100 mg/kg administered qd for 6 days beginning 24 hrs after tumor implantation relative to control. In kind it is functional.
A short description of data set [10]: Metal chelating activity of the compound assessed as cupric ion complex formation at drug:cupric chloride ratio of 2:1 by absorbance analysis. Format: physicochemical.
The subject of data set [11] is Sarcoma-180. The data set can be described thus: Antitumor activity against mouse Sarcoma 180 cells allografted in mouse assessed as host survival time at 40 mg/kg administered qd for 6 days beginning 24 hrs after tumor implantation relative to control in presence of 8 mg/kg CuCl2. In kind it is functional.
Data set [12] in a line: Metal chelating activity of the compound assessed as cupric ion complex formation at drug:cupric chloride ratio of 1:1 by absorbance analysis. In kind it is physicochemical.
Data set [13] concerns Sarcoma-180. The data set can be described thus: Antitumor activity against mouse Sarcoma 180 cells allografted in mouse assessed as host survival time at 50 mg/kg administered qd for 6 days beginning 24 hrs after tumor implantation relative to control in presence of 8 mg/kg CuCl2. Format: functional.
The test system of data set [14] is Ehrlich. The data set can be described thus: Antitumor activity against mouse Ehrlich ascites carcinoma cells allografted in mouse assessed as host survival time at 50 mg/kg administered qd for 6 days beginning 24 hrs after tumor implantation relative to control in presence of 8 mg/kg CuCl2. In kind it is functional.
Data set [15] in a line: Metal chelating activity of the compound assessed as cupric ion complex formation by absorbance analysis. In kind it is physicochemical.

In [1], `O=P1(N(CCCl)CCCl)NCCCO1` (centres undefined) [CYCLOPHOSPHAMIDE ANHYDROUS] came in with a logP of 0.63.
On to `S=P(N/N=C/c1ccccn1)(Oc1ccccc1)Oc1ccccc1`, for which the figures for the T/C with P388 [2] and in the data set with P388 [3] were 102% and 94%, respectively.
As to `O=P(N/N=C/c1cccc[n+]1[O-])(Oc1ccccc1)Oc1ccccc1`, the T/C with P388 [2] amounted to 111%; in the data set on P388 [4], 95%.
On to `O.O=P(O)(N/N=C/c1cccc[n+]1[O-])Oc1ccccc1`, for which the logP in data set [1] was -0.76. In addition, the T/C in the data set on Sarcoma-180 [5] amounted to 107%; in the data set with Ehrlich [6], 164%; in the data set with Ehrlich [9], 118%; in the data set on Sarcoma-180 [11], 87%. The Activity result is reported as “Not Active” in data set [7], “Active” in [8] and “Active” in data set [10].
For `CCOP(=S)(N/N=C/c1cccc[n+]1[O-])OCC`, the T/C was found to be 111% with P388 [2]; 96% in the data set with Sarcoma-180 [5]; 135% in the data set with Ehrlich [6]; 73% in the data set with P388 [3]; 108% with Ehrlich [9]; 126% in the data set on Sarcoma-180 [11]. The Activity entry in data set [7] and in data set [8] was “Not Active” in each case.
For `S=P(N/N=C/c1ccccn1)(N/N=C/c1ccccn1)Oc1ccccc1`, the T/C in the data set with P388 [2] is on record as 87%; in the data set with Sarcoma-180 [5], 93%; in the data set on Ehrlich [6], 269%; with P388 [3], 97%; with Ehrlich [9], 114%; in the data set on Sarcoma-180 [11] it was 141%. The same compound returned a logP in data set [1] of 1.62.
Consider `[O-][n+]1ccccc1/C=N/NP(=S)(N/N=C/c1cccc[n+]1[O-])Oc1ccccc1`, for which the T/C stood at 103% in the data set on P388 [2]; 89% with Sarcoma-180 [5]; 166% with Ehrlich [6]; 89% in the data set with P388 [3]; 123% with Ehrlich [9]; 85% in the data set with Sarcoma-180 [11]. In addition, the logP in data set [1] is 1.28. In addition, the Activity entry in data set [7] and in data set [8] was “Not Active” each time.
For `O.O=P(O)(N/N=C/c1ccccn1)Oc1ccccc1`, the T/C in the data set with P388 [2] turned out to be 103%; in the data set with Sarcoma-180 [5] it was 95%; in the data set on Ehrlich [6], 163%; in the data set on P388 [3], 99%; with Ehrlich [9] it was 115%; with Sarcoma-180 [11], 79%. In addition, the Activity result is recorded as “Not Active” in [7], “Active” in data set [8] and “Active” in data set [12].
As for `O=P(N/N=C/c1ccccn1)(Oc1ccccc1)Oc1ccccc1`, the T/C with P388 [2] was found to be 117%; with P388 [3], 92%. Moreover, the result in data set [10] was Active.
Regarding `[O-][n+]1ccccc1`, the logP in data set [1] was -1.69.
Turning to `[O-][n+]1ccccc1/C=N/NP(=S)(N/N=C/c1cccc[n+]1[O-])c1ccccc1`, the T/C in the data set on P388 [2] is reported as 114%; in the data set on Sarcoma-180 [13], 106%; in the data set on Sarcoma-180 [5] it was 79%; with P388 [4] it was 87%; in the data set with Ehrlich [9], 104%; in the data set on Ehrlich [14], 204%. The Activity entry in data set [7] and in [8] was “Not Active” each time.
Consider `[O-][n+]1ccccc1/C=N/NP(=S)(Oc1ccccc1)Oc1ccccc1`, for which the T/C turned out to be 113% with P388 [2]; 93% in the data set on Sarcoma-180 [5]; 204% in the data set on Ehrlich [6]; 94% in the data set on P388 [3]; 144% in the data set with Ehrlich [9]; 106% in the data set on Sarcoma-180 [11]. For the same compound, the Activity entry in [7] and in data set [8] was “Not Active” throughout.
On to `CCOP(=O)(N/N=C/c1cccc[n+]1[O-])OCC`, for which the T/C in the data set on P388 [2] was determined as 108%; in the data set with Ehrlich [6], 98%; in the data set on P388 [3], 78%; with Ehrlich [9] it was 160%. For the same compound, the Activity entry in data set [15], in [7] and in data set [8] was “Not Active” in each case.
Turning to `S=P(N/N=C/c1ccccn1)(N/N=C/c1ccccn1)c1ccccc1`, the T/C stood at 108% in the data set with P388 [2]; 87% with Sarcoma-180 [13]; 81% in the data set on Sarcoma-180 [5]; 95% in the data set with P388 [4]; 190% in the data set on Ehrlich [9]; 150% in the data set with Ehrlich [14].

The term logP denotes the decadic logarithm of the partition coefficient of the neutral form, usually between octanol and water. The low end stands for lower lipophilicity, the high end for higher lipophilicity. Usually T/C stands for the result in the treated group divided by that in the control group, in per cent.
